Reference: BindingDB's records for patent US12435089 (Tyk Medicines, 2025)

Tests used:
Assay in all cases: Inhibitory Activity of the Compounds of the Invention Against ROS1, NTRK and ALK and their Drug-Resistant Kinases
[1] = molecular target: High affinity nerve growth factor receptor (Homo sapiens, UniProt P04629)
Method: (§1) Inhibition of protein kinase activity by compounds was carried out on the Radio-tagged HotSpot kinase experimental platform of Reaction Biology Corporation. Fresh reaction solution (20 mM HEPESpH 7.5, 10 mM MgCl2, 1 mM EGTA, 0.02% Brij35, 0.02 mg/ml BSA, 0.1 mM Na3VO4, 2 mM DTT, 1% DMSO) containing corresponding substrates was prepared, cofactor and kinase to be tested were added into the above solution and mixed gently. Echo550 pipetting system was used to add the test compound DMSO solution to each well (the blank control group was added with the corresponding volume of DMSO), then 33P-ATP (with a final specific activity of 0.01 μCi/μL) was added to start the reaction. The reaction solution was incubated at room temperature for 120 minutes.

[2] = molecular target: NT-3 growth factor receptor (Homo sapiens, UniProt Q16288)
Method: as §1

[3] = molecular target: Proto-oncogene tyrosine-protein kinase ROS (Homo sapiens, UniProt P08922)
Method: as §1

Measured: IC50

NT-3 growth factor receptor, sequence (Q16288 whole entry): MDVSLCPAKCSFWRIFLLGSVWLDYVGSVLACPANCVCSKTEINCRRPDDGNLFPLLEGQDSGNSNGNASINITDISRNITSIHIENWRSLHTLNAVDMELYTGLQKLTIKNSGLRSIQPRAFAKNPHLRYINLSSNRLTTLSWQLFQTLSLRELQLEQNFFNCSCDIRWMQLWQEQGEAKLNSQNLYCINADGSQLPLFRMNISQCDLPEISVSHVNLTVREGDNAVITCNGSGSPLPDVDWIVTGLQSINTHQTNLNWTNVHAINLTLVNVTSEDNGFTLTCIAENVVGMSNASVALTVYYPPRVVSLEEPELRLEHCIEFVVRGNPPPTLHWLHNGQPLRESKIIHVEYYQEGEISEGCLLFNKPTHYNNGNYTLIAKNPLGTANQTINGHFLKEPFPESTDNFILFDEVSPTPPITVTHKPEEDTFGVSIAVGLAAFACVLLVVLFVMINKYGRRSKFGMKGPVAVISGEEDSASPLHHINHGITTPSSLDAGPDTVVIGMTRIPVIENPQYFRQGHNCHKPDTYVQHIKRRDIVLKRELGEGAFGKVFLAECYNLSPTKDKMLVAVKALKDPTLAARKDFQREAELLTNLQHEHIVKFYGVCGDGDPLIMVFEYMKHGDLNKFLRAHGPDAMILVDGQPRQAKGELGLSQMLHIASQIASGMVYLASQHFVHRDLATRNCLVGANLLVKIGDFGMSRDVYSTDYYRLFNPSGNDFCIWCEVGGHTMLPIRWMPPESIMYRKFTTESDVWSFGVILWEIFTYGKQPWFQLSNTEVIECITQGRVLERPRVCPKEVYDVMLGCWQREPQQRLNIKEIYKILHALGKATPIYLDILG
High affinity nerve growth factor receptor, sequence (P04629 whole entry): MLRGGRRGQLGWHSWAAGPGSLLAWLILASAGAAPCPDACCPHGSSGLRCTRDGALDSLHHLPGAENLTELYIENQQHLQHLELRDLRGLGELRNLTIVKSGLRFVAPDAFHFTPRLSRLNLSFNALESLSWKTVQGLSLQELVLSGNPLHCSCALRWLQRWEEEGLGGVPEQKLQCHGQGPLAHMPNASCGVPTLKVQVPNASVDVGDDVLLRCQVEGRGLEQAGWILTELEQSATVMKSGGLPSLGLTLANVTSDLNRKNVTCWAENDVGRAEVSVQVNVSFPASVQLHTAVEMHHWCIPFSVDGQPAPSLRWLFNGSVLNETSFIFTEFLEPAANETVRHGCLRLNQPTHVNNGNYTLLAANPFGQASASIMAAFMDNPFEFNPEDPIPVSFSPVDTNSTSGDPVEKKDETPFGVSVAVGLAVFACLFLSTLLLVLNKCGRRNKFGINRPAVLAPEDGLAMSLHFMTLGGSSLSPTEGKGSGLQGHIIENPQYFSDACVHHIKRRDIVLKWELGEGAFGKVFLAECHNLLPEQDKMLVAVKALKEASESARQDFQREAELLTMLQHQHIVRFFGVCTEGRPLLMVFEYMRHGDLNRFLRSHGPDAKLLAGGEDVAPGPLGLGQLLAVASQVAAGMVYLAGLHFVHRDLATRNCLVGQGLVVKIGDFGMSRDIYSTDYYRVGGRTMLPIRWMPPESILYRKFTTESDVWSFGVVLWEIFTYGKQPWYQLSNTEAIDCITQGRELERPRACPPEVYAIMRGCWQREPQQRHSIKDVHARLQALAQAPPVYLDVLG
Proto-oncogene tyrosine-protein kinase ROS, sequence (P08922 whole entry): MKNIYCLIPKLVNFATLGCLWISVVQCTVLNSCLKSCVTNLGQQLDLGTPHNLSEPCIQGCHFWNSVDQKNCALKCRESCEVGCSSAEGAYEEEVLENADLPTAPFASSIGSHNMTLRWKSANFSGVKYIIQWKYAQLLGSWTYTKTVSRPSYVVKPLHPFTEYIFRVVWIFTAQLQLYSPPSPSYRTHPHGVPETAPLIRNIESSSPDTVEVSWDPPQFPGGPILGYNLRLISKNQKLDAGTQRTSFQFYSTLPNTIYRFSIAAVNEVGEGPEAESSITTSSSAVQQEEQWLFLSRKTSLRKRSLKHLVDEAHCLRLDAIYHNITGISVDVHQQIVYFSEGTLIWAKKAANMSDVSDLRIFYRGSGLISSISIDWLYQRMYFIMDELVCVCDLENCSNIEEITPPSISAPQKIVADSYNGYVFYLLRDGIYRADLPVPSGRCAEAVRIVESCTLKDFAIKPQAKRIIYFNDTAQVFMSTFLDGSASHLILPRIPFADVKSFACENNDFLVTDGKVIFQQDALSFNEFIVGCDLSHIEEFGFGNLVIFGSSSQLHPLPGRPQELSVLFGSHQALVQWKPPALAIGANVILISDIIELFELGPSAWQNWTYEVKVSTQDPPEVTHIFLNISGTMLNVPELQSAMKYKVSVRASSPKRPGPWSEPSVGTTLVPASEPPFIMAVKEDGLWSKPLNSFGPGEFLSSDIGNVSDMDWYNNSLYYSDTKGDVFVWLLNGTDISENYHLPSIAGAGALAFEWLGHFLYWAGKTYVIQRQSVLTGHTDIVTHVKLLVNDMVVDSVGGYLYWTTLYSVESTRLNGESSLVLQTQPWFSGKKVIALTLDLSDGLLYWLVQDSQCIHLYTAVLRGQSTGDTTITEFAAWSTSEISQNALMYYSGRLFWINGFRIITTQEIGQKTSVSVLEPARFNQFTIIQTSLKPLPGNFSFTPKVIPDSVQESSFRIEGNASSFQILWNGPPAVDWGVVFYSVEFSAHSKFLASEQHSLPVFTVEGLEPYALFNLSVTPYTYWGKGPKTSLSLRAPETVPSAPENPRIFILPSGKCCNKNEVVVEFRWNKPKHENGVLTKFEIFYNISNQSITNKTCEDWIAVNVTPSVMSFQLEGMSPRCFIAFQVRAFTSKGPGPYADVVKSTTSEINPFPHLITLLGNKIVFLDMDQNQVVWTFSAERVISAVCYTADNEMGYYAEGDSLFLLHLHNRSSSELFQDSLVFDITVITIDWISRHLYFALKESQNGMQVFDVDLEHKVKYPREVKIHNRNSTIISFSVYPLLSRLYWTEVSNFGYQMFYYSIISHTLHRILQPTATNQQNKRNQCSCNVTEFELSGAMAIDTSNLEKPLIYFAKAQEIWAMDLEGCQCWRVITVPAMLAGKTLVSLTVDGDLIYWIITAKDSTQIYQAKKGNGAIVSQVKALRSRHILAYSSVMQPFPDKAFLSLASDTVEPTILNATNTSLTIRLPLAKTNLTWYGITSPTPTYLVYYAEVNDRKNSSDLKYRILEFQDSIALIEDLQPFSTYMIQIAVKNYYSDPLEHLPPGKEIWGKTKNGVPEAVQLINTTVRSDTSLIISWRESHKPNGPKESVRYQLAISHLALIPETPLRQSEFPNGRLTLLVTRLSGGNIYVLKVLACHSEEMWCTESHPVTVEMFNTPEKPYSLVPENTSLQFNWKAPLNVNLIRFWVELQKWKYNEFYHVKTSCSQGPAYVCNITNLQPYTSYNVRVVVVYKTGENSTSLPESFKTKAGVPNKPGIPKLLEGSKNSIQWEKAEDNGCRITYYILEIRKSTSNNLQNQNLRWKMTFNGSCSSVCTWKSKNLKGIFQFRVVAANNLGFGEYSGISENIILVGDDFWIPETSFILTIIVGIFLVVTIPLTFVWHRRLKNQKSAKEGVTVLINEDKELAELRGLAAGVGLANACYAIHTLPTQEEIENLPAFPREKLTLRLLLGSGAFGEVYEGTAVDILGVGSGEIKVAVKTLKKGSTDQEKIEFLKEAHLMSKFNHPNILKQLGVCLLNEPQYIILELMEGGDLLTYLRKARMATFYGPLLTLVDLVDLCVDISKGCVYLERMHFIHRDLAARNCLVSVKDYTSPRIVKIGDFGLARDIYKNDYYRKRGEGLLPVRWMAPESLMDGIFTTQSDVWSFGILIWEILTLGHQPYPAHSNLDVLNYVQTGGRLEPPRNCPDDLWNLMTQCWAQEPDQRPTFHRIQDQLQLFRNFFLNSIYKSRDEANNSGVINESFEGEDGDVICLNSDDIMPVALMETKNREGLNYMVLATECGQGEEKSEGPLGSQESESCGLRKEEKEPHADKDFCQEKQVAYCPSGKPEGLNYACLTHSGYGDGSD

C[C@@H](Oc1ccn2ncc(C3=NOC(C)(C)N3)c2n1)c1c(Cl)ccc(F)c1Cl [US12435089, Example 9]
< 0.5 nM: all assays above
